Reference: US11167005B2, “Peptides for treating Sjogren's syndrome” (YEDA RESEARCH AND DEVELOPMENT CO. LTD., priority 2017, dated 2021)
Entries after “also recorded” stand apart in the source; their conditions may differ.

Columns and labels:
IDO [1] = test: IDO gene expression in PBMCs of pSS patients, real-time RT-PCR; assay type: cell-based, human; settings: for IDO gene expression on addition of recombinant cytokine to cultures of PBMCs with hCDR1: compared with hCDR1 alone (FIG. 3C)
Description: Following 48 hours of incubation, cells were collected and mRNA was prepared from all samples. The expression of various genes was determined using real-time RT-PCR.
Thereafter, RNA was extracted from the cells and gene expression was determined by real-time RT-PCR.
Since both IL-1β and IFN-α were reported to increase the production and expression of IDO, the effects of the addition of recombinant IL-1β or IFN-α to cultures of PBMCs with hCDR1 on IDO gene expression were further tested.
(§1) The effect of IDO inhibition on the expression of the suppressive master gene FOXP3, that is expressed on functional T regulatory cells, was tested.

FOXP3 = FOXP3 gene expression in PBMCs of SS patients, real-time RT-PCR; assay type: cell-based, human
Description: (§2) 5×10^6/mL peripheral blood mononuclear cells (PBMCs) obtained from blood samples of rheumatoid arthritis (RA) patients, anti-phospholipid syndrome patients (APS) and SS patients were incubated in-vitro in: medium alone, medium containing 25 μg/mL hCDR1 (SEQ ID NO: 1), or medium containing 25 μg/mL of control scrambled peptide (SEQ ID NO: 2). Following 48 hours of incubation, cells were collected and mRNA was prepared from all samples. The expression of various genes was determined using real-time RT-PCR. The control peptide has the same amino acid residues as SEQ ID NO:1 in a scrambled order.
as §1

IDO [2] = test: IDO gene expression in PBMCs of subjects with RA; assay type: cell-based, human; settings: 48 hours (FIG. 3B)
TGF-β = TGF-β gene expression in PBMCs of SS patients, real-time RT-PCR; assay type: cell-based, human; settings: 48 hours; for expression of the gene for TGF-β: PBMCs isolated from SS patients, p=0.012 vs medium alone, p=0.028 vs control peptide
Description: as §2
PBMCs of patients with pSS were isolated and incubated in vitro for 48 hours in the presence of medium, hCDR1 (SEQ ID NO: 1) or a control scrambled peptide (SEQ ID NO: 2). Thereafter, RNA was extracted from the cells and gene expression was determined by real-time RT-PCR.

pathogenic cytokines [3] = test: Gene expression of pathogenic cytokines in PBMCs of anti-phospholipid syndrome patients; assay type: cell-based, human; settings: 25 μg/mL, 48 hours, vs medium alone or control peptide (FIG. 1B)
Description: as §2

BLyS = BLyS gene expression in PBMCs of SS patients, real-time RT-PCR; assay type: cell-based, human; settings: 25 μg/mL, 48 hours
Description: as §2

TNF-α = TNF-α gene expression in PBMCs of SS patients, real-time RT-PCR; assay type: cell-based, human; settings: 25 μg/mL, 48 hours
Description: as §2

MX1 = MX1 gene expression in PBMCs of SS patients, real-time RT-PCR; assay type: cell-based, human; settings: 25 μg/mL, 48 hours
Description: as §2

SLE in murine models = settings: cited from earlier work
DNA = settings: background statement; cited from earlier work
SLE patients = settings: Phase II clinical trial in SLE patients (Urowitz et al. 2015); cited from earlier work
IL-1β = IL-1β gene expression in PBMCs of SS patients, real-time RT-PCR; assay type: cell-based, human; settings: 25 μg/mL, 48 hours
Description: as §2

[4] = Phase Ia and Ib clinical studies, humans; cited from earlier work
anti-DNA antibodies = settings: background statement; cited from earlier work
pathogenic cytokines [5] = test: Gene expression of pathogenic cytokines in PBMCs of rheumatoid arthritis patients; assay type: cell-based, human; settings: 25 μg/mL, 48 hours, vs medium alone or control peptide (FIG. 1A)
Description: as §2

[6] = PBMCs of pSS patients, compared with hCDR1 alone (FIG. 3D)
[7] = IDO gene, PBMCs of SS patients, 48 hours
[8] = FOXP3 gene, PBMCs of SS patients, 25 μg/mL, 48 hours
[9] = TGF-β gene, PBMCs of SS patients
[10] = vs medium alone and control scrambled peptide (FIG. 2)

IL-1β: recombinant IL-1β added to cultures of PBMCs with hCDR1
IDO gene expression on addition of recombinant cytokine to cultures of PBMCs with hCDR1 (IDO [1]): increased IDO gene expression to levels much higher

IFN-α
IDO gene expression on addition of recombinant cytokine to cultures of PBMCs with hCDR1 (IDO [1]): increased IDO gene expression to levels much higher

Cn1cc(C[C@@H](N)C(=O)O)c2ccccc21 [1 mT, 1-methyl-D-tryptophan, reference compound]
IDO gene expression on addition of 1 mT to PBMC cultures with hCDR1 (IDO [1]; [6]): significant decrease | FOXP3 expression on addition of 1 mT to PBMC cultures with hCDR1 (FOXP3; [6]): significant down-regulation

GYYWSWIRQPPGKGEEWIG [hCDR1, 19-amino-acid synthetic peptide based on CDR1 of the heavy chain of human anti-DNA mAb 16/6Id]
expression of IDO (IDO [2]): did not affect significantly | Modulation by hCDR1 (IDO [1]; [7]): Upregulation | Percent responders exhibiting gene expression modulation, hCDR1 compared to control peptide (IDO [1]; [7]): (69%) | Percent responders exhibiting gene expression modulation, hCDR1 compared to medium (IDO [1]; [7]): (81%) | Responders/Total, hCDR1 compared to control peptide (IDO [1]; [7]): 9/13 | Responders/Total, hCDR1 compared to medium (IDO [1]; [7]): 13/16 | expression of the IDO gene (IDO [1]; PBMCs of patients with pSS, 48 hours, vs medium alone or control peptide (FIG. 3A)): up-regulated significantly | Modulation by hCDR1 (FOXP3; [8]): Upregulation | Percent responders exhibiting gene expression modulation, hCDR1 compared to control peptide (FOXP3; [8]): (58%) | Percent responders exhibiting gene expression modulation, hCDR1 compared to medium (FOXP3; [8]): (75%) | Responders/Total, hCDR1 compared to control peptide (FOXP3; [8]): 7/12 | Responders/Total, hCDR1 compared to medium (FOXP3; [8]): 12/16 | gene expression of the FOXP3 gene (FOXP3; PBMCs of SS patients, 25 μg/mL, 48 hours, vs medium alone and control scrambled peptide (FIG. 2)): significant increase | expression of the gene for TGF-β (TGF-β): significantly up-regulated | Modulation by hCDR1 (TGF-β; [9]): Upregulation | Percent responders exhibiting gene expression modulation, hCDR1 compared to control peptide (TGF-β; [9]): (72.7%) | Percent responders exhibiting gene expression modulation, hCDR1 compared to medium (TGF-β; [9]): (70.5%) | Responders/Total, hCDR1 compared to control peptide (TGF-β; [9]): 8/11 | Responders/Total, hCDR1 compared to medium (TGF-β; [9]): 12/17 | gene expression of pathogenic cytokines (pathogenic cytokines [3]): No significant effects; also recorded: non-significant effects | gene expression of the BLyS gene (BLyS; [10]): significant reduction | Modulation by hCDR1 (BLyS; BLyS gene): Downregulation | Percent responders exhibiting gene expression modulation, hCDR1 compared to control peptide (BLyS; BLyS gene): (50%) | Percent responders exhibiting gene expression modulation, hCDR1 compared to medium (BLyS; BLyS gene): (70.5%) | Responders/Total, hCDR1 compared to control peptide (BLyS; BLyS gene): 6/12 | Responders/Total, hCDR1 compared to medium (BLyS; BLyS gene): 12/17 | gene expression of TNF-α (TNF-α; [10]): significant reduction; also recorded: significant effects | Modulation by hCDR1 (TNF-α; TNF-α gene): Downregulation | Percent responders exhibiting gene expression modulation, hCDR1 compared to control peptide (TNF-α; TNF-α gene): (61.5%) | Percent responders exhibiting gene expression modulation, hCDR1 compared to medium (TNF-α; TNF-α gene): (78.5%) | Responders/Total, hCDR1 compared to control peptide (TNF-α; TNF-α gene): 8/13 | Responders/Total, hCDR1 compared to medium (TNF-α; TNF-α gene): 11/14 | gene expression of MX1 (MX1; [10]): significant reduction; also recorded: significant effects | Modulation by hCDR1 (MX1; MX1 gene): Downregulation | Percent responders exhibiting gene expression modulation, hCDR1 compared to control peptide (MX1; MX1 gene): (77%) | Percent responders exhibiting gene expression modulation, hCDR1 compared to medium (MX1; MX1 gene): (77%) | Responders/Total, hCDR1 compared to control peptide (MX1; MX1 gene): 10/13 | Responders/Total, hCDR1 compared to medium (MX1; MX1 gene): 10/13 | serological and clinical disease manifestations of SLE (SLE in murine models): ameliorate serological and clinical disease manifestations | binding to DNA (DNA): does not bind | effects on several parameters (SLE patients): beneficial effects | gene expression of IL-1β (IL-1β; [10]): significant reduction; also recorded: significant effects | Modulation by hCDR1 (IL-1β; IL-1β gene): Downregulation | Percent responders exhibiting gene expression modulation, hCDR1 compared to control peptide (IL-1β; IL-1β gene): (61.5%) | Percent responders exhibiting gene expression modulation, hCDR1 compared to medium (IL-1β; IL-1β gene): (86%) | Responders/Total, hCDR1 compared to control peptide (IL-1β; IL-1β gene): 8/13 | Responders/Total, hCDR1 compared to medium (IL-1β; IL-1β gene): 12/14 | safety and tolerability [4]: safe and well tolerated | binding to anti-DNA antibodies (anti-DNA antibodies): does not bind | gene expression of pathogenic cytokines (pathogenic cytokines [5]): No significant effects; also recorded: non-significant effects

SKGIPQYGGWPWEGWRYEI [control scrambled peptide, Control peptide, reference compound]
expression of the gene for TGF-β (TGF-β): not
